Structures can show the parent of a compound that is named as a salt.
What was measured:
LTA4 hydrolase = settings: background statement, no value; cited from earlier work
[1] = target: T1, recombinant human LTA hydrolase (rhLTAH) (Homo sapiens, UniProt P09960); experiment: Recombinant Human LTA Hydrolase Assay for LTA Hydrolase Inhibitor Activity; format: biochemical; settings: 250 ng rhLTA4H, 10 min preincubation, room temperature, pH 7.4, 10 min reaction, immunoassay; read-out: Recombinant Human LTA4 Hydrolase Assay IC50 LTA4
T1 construct: made in house; host or cells: Spodoptera frugiperda Sf-9 cells (baculovirus AcNPV)
T1 sequence (P09960 1-611): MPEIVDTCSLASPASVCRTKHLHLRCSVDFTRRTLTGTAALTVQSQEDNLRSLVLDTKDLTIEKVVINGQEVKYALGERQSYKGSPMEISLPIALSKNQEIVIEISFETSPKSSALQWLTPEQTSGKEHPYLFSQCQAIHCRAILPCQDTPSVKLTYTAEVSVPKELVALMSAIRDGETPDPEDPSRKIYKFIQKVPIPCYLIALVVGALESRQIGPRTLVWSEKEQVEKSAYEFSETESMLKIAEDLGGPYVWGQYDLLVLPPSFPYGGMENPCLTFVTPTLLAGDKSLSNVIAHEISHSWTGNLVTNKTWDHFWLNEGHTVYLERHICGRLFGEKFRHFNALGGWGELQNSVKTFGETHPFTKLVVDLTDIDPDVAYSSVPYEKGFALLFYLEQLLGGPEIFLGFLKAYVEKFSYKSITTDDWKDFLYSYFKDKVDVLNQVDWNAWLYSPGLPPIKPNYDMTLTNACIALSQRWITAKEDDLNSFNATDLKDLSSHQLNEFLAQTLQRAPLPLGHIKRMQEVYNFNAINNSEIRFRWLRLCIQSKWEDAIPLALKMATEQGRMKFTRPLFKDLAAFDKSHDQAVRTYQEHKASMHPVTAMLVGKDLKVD
Procedure: Recombinant Human LTA Hydrolase Assay for LTA Hydrolase Inhibitor Activity
Compounds of the present invention were tested for LTA hydrolase inhibitor activity against recombinant human LTA hydrolase (rhLTAH). Recombinant human LTA hydrolase-encoding vectors were prepared and used to express rhLTAH essentially as described by J. Gierse, et al., Protein Expression and Purification, 4, 358-366 (1993). Briefly, LTA hydrolase encoding DNA was amplified by polymerase chain reaction using a pair of oligonucleotide primers based on the nucleotide sequence from the 5'-end, and the complement of the 3'-end, of the coding region of the LTA hydrolase gene, the nucleotide sequence of which gene is known. (See, C. Funk, et al., Proc. Natl. Acad. Sci. U.S.A. 84, 6677-6681 (1987)). A λgt11 human placental cDNA library (Clonetech, Palo Alto, Calif.) provided the nucleic acid template. […] The amplified 1.9 kb DNA was isolated and cloned into the genomic baculovirus, Autographa californica nuclear polyderosis virus (AcNPC) DNA, and the baculovirus expression vector was transfected into Spodoptera frugiperda Sf-9 cells employing the calcium phosphate co-precipitation method (see, M. Summers, et al., Tex. Agric. Exp. Stn. Bull. 1555, 1-57 (1987). Recombinant LTA4 hydrolase enzyme was purified from the transfected Sf-9 cells essentially as described by J. Gierse, et al., supra.
One or more predetermined amounts of a compound of the invention were incubated in assay buffer (0.1 M potassium phosphate, 5 mg/ml fatty acid free BSA, 10% DMSO, pH 7.4) for 10 minutes at room temperature with 250 ng of recombinant hLTA4 H to allow binding, if any, between the enzyme and inhibitor. The stock enzyme solution was 1 mg/m. LTA4 hydrolase, 50 mM Tris, pH 8.0, 150 mM NaCl, 2.5 mM beta-mercaptoethanol, 50% glycerol. The specific activity of the enzyme was about 650 nMoles/min/mg. LTA4 (i.e., substrate) was prepared from the methyl ester of LTA, (Biomol, Inc., Plymouth Meeting, Pa.) by treating the methyl ester with 30 molar equivalents of LiOH at room temperature for 18 hours. The LTA4 substrate in its free acid form was kept frozen at -80° C. until needed. LTA, (free acid) was thawed and diluted in assay buffer (minus DMSO) to a concentration of 350 ng/ml and 25 μl (8 ng) of LTA4 substrate was added to the reaction mixture (total volume of reaction mixture=200 μl at time zero. Each reaction was carried out at room temperature for 10 minutes. The reaction was stopped by diluting 25 μl of the reaction mixture with 500 μl of the assay buffer without DMSO. […] was quantified in the diluted sample by a commercially available enzyme-linked immunoassay [Caymen Chemical Col. Ann Arbor, Mich.] using the method recommended in the manufacturer's instructions and compared to the amount of […] produced in a negative control (i.e., essentially identical conditions except without addition of an inhibitor compound). The IC50 was routinely calculated from the data produced.

[2] = tested on: LTB4 production in calcium ionophore-stimulated mouse blood; experiment: Murine Ex Vivo LTB4 Inhibition, calcium ionophore stimulated mouse blood after oral gavage; format: in vivo; settings: blood collected 1 hour after administration, ionophore A23187 20 mcg/ml, read-out: Murine Ex Vivo LTB4 Inhibition % I LTB4 at 1 hour after administration of 10 mg/kg
Procedure: Ex Vivo LTB4 and Thromboxane Production by Calcium Ionophore Stimulated Mouse Blood for LTB4 Hydrolase Inhibitor Activity
Leukotriene A4 hydrolase inhibitor compounds of the present invention were diluted to a predetermined concentration in phosphate buffered saline containing 2%; DMSO and 1% Tween 80. The compounds were administered by oral gavage to adult male outbred mice weighing approximately 20-30 gm at a dose of 10 mg/kg body weight. (Compounds given at a dose of 50 mg/kg body weight are designated in following Table by the symbol, *) Sixty (60) minutes after administration of an LTA4 inhibitor compound of the invention, blood was collected (into heparin-containing tubes) from the retroorbital sinus. […] The mixture was incubated for 10 minutes at 37° C. in a humidified incubator. The reaction was terminated by centrifugation (833 g. 10 minutes at 4° C.). Supernatant were analyzed for LTB4 and thromboxane by commercially available enzyme-linked immunoassays [Caymen Chemical Co., Ann Arbor, Mich.] in accordance with the manufacturer's instructions. The percent inhibition was determined by comparison to animals treated identically except that the solution administered by oral gavage was devoid of inhibitor compound.

[3] = tested on: LTB4 production in calcium ionophore-stimulated human blood; experiment: LTB4 Production by Calcium Ionophore Stimulated Human Blood (HWB); format: cell-based; settings: human blood diluted 1:4, 15 min preincubation at 37° C., ionophore 20 mcg/ml, 10 min; read-out: Inhibition of Calcium Ionophore-induced LTB4 Production in Human Blood IC50 HWB
Procedure: LTB4 and Thromboxane Production by Calcium Ionophore Stimulated Human Blood for LTB4 Hydrolase Inhibitor Activity
Human blood, collected in heparin-containing Vacutainer tubes, was diluted 1:4 with RPMI-1640 media and 200 μl of the diluted blood was added into each of a 96-well microtiter plate. One or more concentrations of the leukotriene A4 hydrolase inhibitor compounds being tested were prepared (diluted in DMSO) and 2 μl added and gently mixed with the diluted whole blood. After incubating for 15 minutes at 37° C. in a humidified incubator, calcium ionophore […] (Sigma Chemical Co., St. Louis, Mo.) was added to a final concentration of 20 mcg/ml and the incubation continued under the same conditions for an additional 10 minutes to allow LTB4 formation. The reaction was terminated by centrifugation (833 g, 10 minutes at 4° C.) and supernatant were analyzed for LTB4 and thromboxane by commercially available enzyme-linked immunoassays (Caymen Chemical Co., Ann Arbor, Mich.) according to the manufacturer's instructions. The IC50 of each test compound was determined from the amount of inhibition of LTB4 production as compared to an essentially identical assay in which no inhibitor compound was present.

granulocyte = settings: R. Lewis, et al., 1990; cited from earlier work

## CC(C)C[C@H](NC(=O)[C@@H](O)[C@H](N)Cc1ccccc1)C(=O)O [bestatin]
LTA4 hydrolase
  LTA4 hydrolase inhibitory activity: exhibit LTA4 hydrolase inhibitory activity

## N=C(COc1ccc(Cc2ccccc2)cc1)N1CCCCC1 [Example 4, α[[4-(phenylmethyl)phenoxy)methyl]-1-peperidinemethanimine, monohydrochloride]
[1]
  IC50: 4.3 nM
[2]
  inhibition at 10 mg/kg: 30%
[3]
  IC50: 85 nM

## CCCCC/C=C\C[C@@H](O)/C=C/C=C/C=C\[C@@H](O)CCCC(=O)O [LTB4]
granulocyte
  granulocyte agonist activity inducing chemotaxis, aggregation, degranulation, adherence and priming: potent granulocyte agonist

## N=C(COc1ccc(Cc2ccccc2)cc1)NC1C2CC3CC(C2)CC1C3 (stereo not shown) [Example 11, 2-[4-(phenylmethyl)phenoxy]-N-(tricyclo[3.3.1.1 3,7]decan-2-yl)ethanimidamide, monohydrate]
[1]
  IC50: 7800 nM

## N=C(N)COc1ccc(Cc2ccccc2)cc1 [Example 10, 1-imino-2-[4-(phenylmethyl)phenoxy]ethanamine]
[1]
  IC50: 89 nM
[2]
  inhibition at 10 mg/kg: 0%
[3]
  IC50: 480 nM

## C[C@H](CS)C(=O)N1CCC[C@H]1C(=O)O [captopril]
LTA4 hydrolase
  LTA4 hydrolase inhibitory activity: exhibit LTA4 hydrolase inhibitory activity

## CCOC(=O)CCNC(=N)COc1ccc(Cc2ccccc2)cc1 [Example 6, ethyl 3-[[1-imino-2-[4-(phenylmethyl)phenoxy]ethyl]amino]propanoate, monohydrochloride]
[1]
  IC50: 23 nM
[2]
  inhibition at 10 mg/kg: 54%
[3]
  IC50: 200 nM

## COC(=O)CCN1CCN=C1COc1ccc(Cc2ccccc2)cc1 [Example 8]
[1]
  IC50: 1170 nM
[2]
  inhibition at 10 mg/kg: 68%
[3]
  IC50: 550 nM

## c1ccc(Cc2ccc(OCC3=NCCN3)cc2)cc1 [Example 7, 4,5-dihydro-2-[[4-(phenylmethyl)phenoxy]methyl]-1H-imidazole]
[1]
  IC50: 70 nM
[2]
  inhibition at 10 mg/kg: 33%
[3]
  IC50: 220 nM

## N=C(COc1ccc(Cc2ccccc2)cc1)N1CCCC1 [Example 3, α[[4-(phenylmethyl)phenoxy)methyl]-1-pyrrolidinemethanimine, monohydrochloride]
[1]
  IC50: 4 nM
[2]
  inhibition at 10 mg/kg: 46%
[3]
  IC50: 53 nM

## c1ccc(Cc2ccc(OCCCC3=NCCN3)cc2)cc1 [Example 17]
[1]
  IC50: 64 nM
[2]
  inhibition at 10 mg/kg: 28%
[3]
  IC50: 640 nM

## c1ccc(Cc2ccc(OCC3=NC4CCCCC4N3)cc2)cc1 (stereo not shown) [Example 13]
[1]
  IC50: 200 nM
[2]
  inhibition at 10 mg/kg: 71%
[3]
  IC50: 190 nM

## CCOC(=O)C1CCN(C(=N)COc2ccc(Cc3ccccc3)cc2)CC1 [Example 5, ethyl 1-[1-imino-2-[4-(phenylmethyl)phenoxy]ethyl]-4-piperidinecarboxylate,monohydrochloride]
[1]
  IC50: 1.3 nM
[2]
  inhibition at 10 mg/kg: 62%
[3]
  IC50: 71 nM

## NC(COc1ccc(Cc2ccccc2)cc1)=NO [Example 12, N'-hydroxy-2-[4-(phenylmethyl)phenoxy]ethanimidamine]
[1]
  IC50: > 100000 nM
[2]
  inhibition at 10 mg/kg: 63%
[3]
  IC50: 17900 nM

## N=C(COc1ccc(Cc2ccccc2)cc1)N1CCC(C(N)=O)CC1 [Example 9, 1-[1-imino-2-[4-(phenylmethyl)phenoxy]ethyl]-4-piperidinecarboxamide]
[1]
  IC50: 17 nM
[2]
  inhibition at 10 mg/kg: 30%
[3]
  IC50: 77 nM

## N=C(CCCOc1ccc(Cc2ccccc2)cc1)N1CCCCC1 [Example 16, α-[3-[4-(phenylmethyl)phenoxy)propyl]-1-peperidinemethanimine, monohydrochloride]
[1]
  IC50: 53 nM
[2]
  inhibition at 10 mg/kg: 60%
[3]
  IC50: 640 nM

Reference: patent US6110944A, “LTA4, hydrolase inhibitors” (G. D. Searle & Co., priority 1997, dated 2000)
